Patent publication US9012403B2, “Peptides as active agents to stabilize biological barriers” (XiberScience GmbH, priority 2010, dated 2015)
Marks after values point to notes of the source that are not given here.

How the values were obtained:
Type in all cases: cell-based
[1] = system: Phosphorylated Myosin Light Chain (MLC) and actin stress fibers; experiment: MLC phosphorylation and actin stress fiber formation in ECV304 cells (microscopy score)
Protocol: (§1) To measure MLC phosphorylation and actin stress fiber formation, the following cell lines were used: Caco-2, ECV304 and HpMec. All cells were grown at standard conditions (37° C., 5% CO2 and 95% rH). Culture Medium used: for Caco-2: DMEM+1 mM sodium pyruvate+20% FCS+1% Penicillin Streptomycin; for ECV 304: RPMI 1640+10% FCS+1% Penicillin Streptomycin; and for HpMec: IMDM+25 mM Hepes+10% Human Serum+1% Penicillin Streptomycin+1% L-Glutamine+ECGS/Heparin 2 ml. 4 h before the experiment, cells were starved by serum withdrawal. To induce GEF-activity, cells were stimulated with thrombin, LPS or PMA for the indicated time in presence or absence of 50 μg/ml XIB1-a or XIB1-b. After stimulation, cells were fixed using 4% PFA. Phospho MLC was detected by using the “rabbit anti phosphor-myosin light chain antibody” from Chemicon in a concentration of 3 μl/ml in PBS (Gibco) supplemented with 0.1% Triton X-100. As detection antibody, the Alexa 448 tagged “anti Rabbit IgG Antibody” from Invitrogen was used in a concentration of 0.5 μl/ml in PBS (Gibco) supplemented with 0.1% Triton X-100. Aktin was detected using TRITC-labeled Phalloidin in a concentration of 0.5 μl/ml in PBS (Gibco) supplemented with 0.1% Triton. Stained cells were analyzed by using a Zeiss Laser Scan microscope. Evaluation of the cyto-skeletal activation was performed by 2 independent observers that were blinded to the conditions. Evaluation criteria were set as follows:
(§2) Actin: parallel actin bundles absent=0; distinct bundle formation=1; prominent parallel bundles=2; Phospho-MLC: present at cell poles=0; slight co-localization with actin bundles=1; prominent co-localization with actin bundles=2

GTP-bound RhoA [2] = experiment: GTP-associated active RhoA in ECV304 membrane fraction (western blot)
Protocol: (§3) To measure the GTP-associated active RhoA, the following cell lines were used: Caco-2, ECV304 and HpMec. All cells were grown at standard conditions (37° C., 5% CO2 and 95% rH). 4 h before the experiment, cells were starved by serum withdrawal. To induce GEF-activity, cells were stimulated with thrombin, LPS or PMA for the indicated time in presence or absence of 50 μg/ml XIB1-a or XIB1-b. After stimulation, membrane fractions were prepared by using the commercial available “Compartemental Protein Extraction Kit” from Biochain Institutes. Membrane fractions were prepared according to the manufacturer instructions. The membrane fraction was separated on 15% polyacrylamide gel according to standard procedures of gel electrophoresis. The gels were afterwards blotted on a nitrocellulose membrane according to standard procedures of western blotting. GTP-bound RhoA was detected using RhoA-GTP monoclonal antibody from NewEast Inc. in a dilution of 1:5000. Protein bands were analyzed with the Dolphin-1D Gel analysis system (Wealtec).

GEF [3] = experiment: GEF-activity in membrane fractions of Caco-2 cells (RhoGEF Exchange Assay)
Protocol: (§4) To measure the GEF-inhibitory effect, the following cell lines were used: Caco-2 (epithelial cells from adeno-carcinoma), ECV304 (epithelial cells from bladder carcinoma) and HpMec (endothelial cells, immortalized pulmonary micro-vascular cells). All cells were grown at standard conditions (37° C., 5% CO2 and 95% relative humidity (rH)). Culture Medium used for Caco-2: DMEM+1 mM sodium pyruvate+20% FCS+1% Penicillin Streptomycin; for ECV 304: RPMI 1640+10% FCS+1% Penicillin Streptomycin; and for HpMec: IMDM+25 mM Hepes+10% Human Serum+1% Penicillin Streptomycin+1% L-Glutamine+ECGS/Heparin 2 ml. 4 h before the experiment, cells were starved by serum withdrawal. To induce GEF-activity, cells were stimulated with thrombin, lipopolysaccharide (LPS) or PMA for the indicated time in presence or absence of 50 μg/ml XIB1-a or XIB1-b. After stimulation, membrane fractions were prepared by using the commercial available “Compartemental Protein Extraction Kit” from Biochain institutes. Membrane fractions were prepared according to the manufacturer instructions. GEF-activity in membrane lysates was determined by using “RhoGEF Exchange Assay Biochem Kit” from Cytoskeleton Inc. according to manufacturer instructions. GEF-activity was measured as fluorescence at using the Fluoroskan Ascent FL 2.6 from Thermo Electron Corporation. The excitation Filter wavelength was set at 355 nm and the emission filter wavelength at 460 nm.

GEF [4] = experiment: GEF-activity in membrane fractions of ECV304 cells (RhoGEF Exchange Assay)
Protocol: as §4

GTP-bound RhoA [5] = experiment: GTP-associated active RhoA in HpMec membrane fraction (western blot); conditions: HpMec
Protocol: as §3

[6] = system: Phosphorylated Myosin Light Chain (MLC) and actin stress fibers; experiment: MLC phosphorylation and actin stress fiber formation in HpMec cells (microscopy score)
Protocol: as §1, §2

GEF [7] = experiment: GEF-activity in membrane fractions of HpMec cells (RhoGEF Exchange Assay); conditions: HpMec
Protocol: as §4

[8] = ECV 304, LPS 100 μg/ml, 1 min, with or without peptide 50 μg/ml
[9] = ECV 304, LPS 100 μg/ml, 5 min, with or without peptide 50 μg/ml
[10] = ECV 304, Thrombin 1 U/ml, 1 min, with or without peptide 50 μg/ml
[11] = ECV 304, Thrombin 1 U/ml, 5 min, with or without peptide 50 μg/ml
[12] = ECV 304, no stimulus, 1 min, peptide 50 μg/ml
[13] = ECV 304, no stimulus, 5 min, peptide 50 μg/ml
[14] = CaCo-2, PMA 1 μg/ml, 1 min, with or without peptide 50 μg/ml
[15] = CaCo-2, PMA 1 μg/ml, 5 min, with or without peptide 50 μg/ml
[16] = CaCo-2, no stimulus, 1 min, peptide 50 μg/ml
[17] = CaCo-2, no stimulus, 5 min, peptide 50 μg/ml
[18] = Thrombin 1 U/ml, 1 min, with or without peptide 50 μg/ml
[19] = Thrombin 1 U/ml, 5 min, with or without peptide 50 μg/ml
[20] = no stimulus, 1 min, peptide 50 μg/ml
[21] = no stimulus, 5 min, peptide 50 μg/ml

| Sequence | MLC phosphorylation and actin stress fiber formation, evaluation score (Mean) [1, 8] | MLC phosphorylation and actin stress fiber formation, evaluation score (Mean) [1, 9] | MLC phosphorylation and actin stress fiber formation, evaluation score (Mean) [1, 10] | MLC phosphorylation and actin stress fiber formation, evaluation score (Mean) [1, 11] | GTP-bound RhoA, relative values compared to unstimulated control (Mean) (GTP-bound RhoA [2]; [8]) | GTP-bound RhoA, relative values compared to unstimulated control (Mean) (GTP-bound RhoA [2]; [9]) | GTP-bound RhoA, relative values compared to unstimulated control (Mean) (GTP-bound RhoA [2]; [10]) | GTP-bound RhoA, relative values compared to unstimulated control (Mean) (GTP-bound RhoA [2]; [11]) | GTP-bound RhoA, relative values compared to unstimulated control (Mean) (GTP-bound RhoA [2]; [12]) | GTP-bound RhoA, relative values compared to unstimulated control (Mean) (GTP-bound RhoA [2]; [13]) | GEF-activity, relative values compared to unstimulated control (Mean) (GEF [3]; [14]) | GEF-activity, relative values compared to unstimulated control (Mean) (GEF [3]; [15]) | GEF-activity, relative values compared to unstimulated control (Mean) (GEF [3]; [16]) | GEF-activity, relative values compared to unstimulated control (Mean) (GEF [3]; [17]) | GEF-activity, relative values compared to unstimulated control (Mean) (GEF [4]; [8]) | GEF-activity, relative values compared to unstimulated control (Mean) (GEF [4]; [9]) | GEF-activity, relative values compared to unstimulated control (Mean) (GEF [4]; [10]) | GEF-activity, relative values compared to unstimulated control (Mean) (GEF [4]; [11]) | GEF-activity, relative values compared to unstimulated control (Mean) (GEF [4]; [12]) | GEF-activity, relative values compared to unstimulated control (Mean) (GEF [4]; [13]) | other results |
| --- | --- | --- | --- | --- | --- | --- | --- | --- | --- | --- | --- | --- | --- | --- | --- | --- | --- | --- | --- | --- | --- |
| GRRPGGASGG (/note=“Description of artificial sequence cingulin-derived peptide XIB1-a”) | 1* | 1* | 1* | 1* | 1.6* | 1.7* | 2.1* | 1.9* | 1 | 1 | 1.4* | 1.5 | 1 | 1 | 1.7* | 1.3* | 2.5* | 1.5* | 1 | 1 | MLC phosphorylation and actin stress fiber formation, evaluation score (Mean) [1, 12]: 1; MLC phosphorylation and actin stress fiber formation, evaluation score (Mean) ([1]; ECV 304, no stimulus, 1 min, peptide 50 μg/ml, listed as XIB-a): 0; GTP-bound RhoA, relative values compared to unstimulated control (Mean) (GTP-bound RhoA [5]; [18]): 2.1*; GTP-bound RhoA, relative values compared to unstimulated control (Mean) (GTP-bound RhoA [5]; [19]): 1.3*; GTP-bound RhoA, relative values compared to unstimulated control (Mean) (GTP-bound RhoA [5]; [20]): 1; GTP-bound RhoA, relative values compared to unstimulated control (Mean) (GTP-bound RhoA [5]; [21]): 1; MLC phosphorylation and actin stress fiber formation, evaluation score (Mean) [6, 18]: 1*; MLC phosphorylation and actin stress fiber formation, evaluation score (Mean) [6, 19]: 0.3*; MLC phosphorylation and actin stress fiber formation, evaluation score (Mean) [6, 20]: 0; MLC phosphorylation and actin stress fiber formation, evaluation score (Mean) [6, 21]: 0; GEF-activity, relative values compared to unstimulated control (Mean) (GEF [7]; [18]): 1.8*; GEF-activity, relative values compared to unstimulated control (Mean) (GEF [7]; [19]): 2.1*; GEF-activity, relative values compared to unstimulated control (Mean) (GEF [7]; [20]): 1; GEF-activity, relative values compared to unstimulated control (Mean) (GEF [7]; [21]): 1 |
| GRRPLGGISGG (/note=“Description of artificial sequence cingulin-derived peptide XIB1-b”) | 1* | 1* | 1* | 1* | 1.6* | 1.7* | 2.1* | 1.9* | 1 | 1 | 1.4* | 1.5 | 1 | 1 | 1.7* | 1.3* | 2.5* | 1.5* | 1 | 1 | GTP-bound RhoA, relative values compared to unstimulated control (Mean) (GTP-bound RhoA [5]; [18]): 2.1*; GTP-bound RhoA, relative values compared to unstimulated control (Mean) (GTP-bound RhoA [5]; [19]): 1.3*; GTP-bound RhoA, relative values compared to unstimulated control (Mean) (GTP-bound RhoA [5]; [20]): 1; GTP-bound RhoA, relative values compared to unstimulated control (Mean) (GTP-bound RhoA [5]; [21]): 1; MLC phosphorylation and actin stress fiber formation, evaluation score (Mean) [6, 18]: 1*; MLC phosphorylation and actin stress fiber formation, evaluation score (Mean) [6, 19]: 0.3*; MLC phosphorylation and actin stress fiber formation, evaluation score (Mean) [6, 20]: 0; MLC phosphorylation and actin stress fiber formation, evaluation score (Mean) [6, 21]: 0; GEF-activity, relative values compared to unstimulated control (Mean) (GEF [7]; [18]): 1.8*; GEF-activity, relative values compared to unstimulated control (Mean) (GEF [7]; [19]): 2.1*; GEF-activity, relative values compared to unstimulated control (Mean) (GEF [7]; [20]): 1; GEF-activity, relative values compared to unstimulated control (Mean) (GEF [7]; [21]): 1 |
